Reference: ChEMBL document CHEMBL3885881, “DrugMatrix”

Species: Rattus norvegicus
Assay: DrugMatrix - Regimen: Daily Repeat
Type: toxicity, organism-based, Sprague-Dawley
Parameters: regimen Daily Repeat, gender Male, age 6-8 weeks
Settings: in vivo, po, 500 mg/kg, route oral GAVAGE, dose level Low, vehicle .5 % CMC; for ABSOLUTE BASOPHIL / ABSOLUTE EOSINOPHIL / ABSOLUTE LYMPHOCYTE / ABSOLUTE MONOCYTE / ABSOLUTE SEGMENTED NEUTROPHIL / BASOPHIL / EOSINOPHIL / ERYTHROCYTE COUNT / HEMATOCRIT / HEMOGLOBIN / LEUKOCYTE COUNT / LYMPHOCYTE / MEAN CORPUSCULAR HEMOGLOBIN / MEAN CORPUSCULAR HEMOGLOBIN CONCENTRATION / MEAN CORPUSCULAR VOLUME / MONOCYTE / NEUTROPHIL / NUCLEATED RED BLOOD CELLS / PLATELET COUNT: tissue Blood; for ALANINE AMINOTRANSFERASE / ALBUMIN / ALKALINE PHOSPHATASE / ASPARTATE AMINOTRANSFERASE / BLOOD UREA NITROGEN / CARBON DIOXIDE / CHLORIDE / CHOLESTEROL / CREATINE PHOSPHOKINASE / CREATININE / GLUCOSE / LACTATE DEHYDROGENASE / LIPASE / PHOSPHORUS / POTASSIUM / SODIUM / TOTAL BILIRUBIN / TOTAL PROTEIN / URIC ACID: tissue Plasma

SMILES: NC[C@H]1CC[C@H](C(=O)O)CC1 [TRANEXAMIC ACID]
- ABSOLUTE BASOPHIL (72 h, time 3 day): 0 CELLS/uL
- ABSOLUTE EOSINOPHIL (72 h, time 3 day): 94.67 CELLS/uL
- ABSOLUTE LYMPHOCYTE (72 h, time 3 day): 11832.33 CELLS/uL
- ABSOLUTE MONOCYTE (72 h, time 3 day): 147 CELLS/uL
- ABSOLUTE SEGMENTED NEUTROPHIL (72 h, time 3 day): 2626 CELLS/uL
- BASOPHIL (72 h, time 3 day): 0%
- EOSINOPHIL (72 h, time 3 day): 0.67%
- ERYTHROCYTE COUNT (72 h, time 3 day): 5.82 x10E6/uL
- HEMATOCRIT (72 h, time 3 day): 36.4%
- HEMOGLOBIN (72 h, time 3 day): 14.33 G/DL
- LEUKOCYTE COUNT (72 h, time 3 day): 14.7 x10E3/uL
- LYMPHOCYTE (72 h, time 3 day): 80.33%
- MEAN CORPUSCULAR HEMOGLOBIN (72 h, time 3 day): 24.63 pg
- MEAN CORPUSCULAR HEMOGLOBIN CONCENTRATION (72 h, time 3 day): 39.43 G/DL
- MEAN CORPUSCULAR VOLUME (72 h, time 3 day): 62.5 fL
- MONOCYTE (72 h, time 3 day): 1%
- NEUTROPHIL (72 h, time 3 day): 18%
- NUCLEATED RED BLOOD CELLS (72 h, time 3 day): 0 /100WBC
- PLATELET COUNT (72 h, time 3 day): 1287 x10E3/uL
- ALANINE AMINOTRANSFERASE (72 h, time 3 day): 49.33 u/L
- ALBUMIN (72 h, time 3 day): 4.3 G/DL
- ALKALINE PHOSPHATASE (72 h, time 3 day): 364.33 u/L
- ASPARTATE AMINOTRANSFERASE (72 h, time 3 day): 83 u/L
- BLOOD UREA NITROGEN (72 h, time 3 day): 13.67 mg/dL
- CARBON DIOXIDE (72 h, time 3 day): 25.33 mmol/L
- CHLORIDE (72 h, time 3 day): 102 MEQ/L
- CHOLESTEROL (72 h, time 3 day): 81 mg/dL
- CREATINE PHOSPHOKINASE (72 h, time 3 day): 246 u/L
- CREATININE (72 h, time 3 day): 0.17 mg/dL
- GLUCOSE (72 h, time 3 day): 155 mg/dL
- LACTATE DEHYDROGENASE (72 h, time 3 day): 225.67 u/L
- LIPASE (72 h, time 3 day): 10 u/L
- PHOSPHORUS (72 h, time 3 day): 14.07 mg/dL
- POTASSIUM (72 h, time 3 day): 6.58 MEQ/L
- SODIUM (72 h, time 3 day): 145.07 MEQ/L
- TOTAL BILIRUBIN (72 h, time 3 day): 0.2 mg/dL
- TOTAL PROTEIN (72 h, time 3 day): 6.07 G/DL
- URIC ACID (72 h, time 3 day): 1.83 mg/dL
- ABSOLUTE BASOPHIL (120 h, time 5 day): 0 CELLS/uL
- ABSOLUTE EOSINOPHIL (120 h, time 5 day): 0 CELLS/uL
- ABSOLUTE LYMPHOCYTE (120 h, time 5 day): 10774 CELLS/uL
- ABSOLUTE MONOCYTE (120 h, time 5 day): 92 CELLS/uL
- ABSOLUTE SEGMENTED NEUTROPHIL (120 h, time 5 day): 2034 CELLS/uL
- BASOPHIL (120 h, time 5 day): 0%
- EOSINOPHIL (120 h, time 5 day): 0%
- ERYTHROCYTE COUNT (120 h, time 5 day): 5.74 x10E6/uL
- HEMATOCRIT (120 h, time 5 day): 35.7%
- HEMOGLOBIN (120 h, time 5 day): 14.13 G/DL
- LEUKOCYTE COUNT (120 h, time 5 day): 12.9 x10E3/uL
- LYMPHOCYTE (120 h, time 5 day): 83.67%
- MEAN CORPUSCULAR HEMOGLOBIN (120 h, time 5 day): 24.67 pg
- MEAN CORPUSCULAR HEMOGLOBIN CONCENTRATION (120 h, time 5 day): 39.57 G/DL
- MEAN CORPUSCULAR VOLUME (120 h, time 5 day): 62.33 fL
- MONOCYTE (120 h, time 5 day): 0.67%
- NEUTROPHIL (120 h, time 5 day): 15.67%
- NUCLEATED RED BLOOD CELLS (120 h, time 5 day): 0 /100WBC
- PLATELET COUNT (120 h, time 5 day): 1198 x10E3/uL
- ALANINE AMINOTRANSFERASE (120 h, time 5 day): 58.67 u/L
- ALBUMIN (120 h, time 5 day): 4.17 G/DL
- ALKALINE PHOSPHATASE (120 h, time 5 day): 364.67 u/L
- ASPARTATE AMINOTRANSFERASE (120 h, time 5 day): 90.67 u/L
- BLOOD UREA NITROGEN (120 h, time 5 day): 15 mg/dL
- CARBON DIOXIDE (120 h, time 5 day): 25.67 mmol/L
- CHLORIDE (120 h, time 5 day): 102 MEQ/L
- CHOLESTEROL (120 h, time 5 day): 61 mg/dL
- CREATINE PHOSPHOKINASE (120 h, time 5 day): 280.67 u/L
- CREATININE (120 h, time 5 day): 0.21 mg/dL
- GLUCOSE (120 h, time 5 day): 154 mg/dL
- LACTATE DEHYDROGENASE (120 h, time 5 day): 250.33 u/L
- LIPASE (120 h, time 5 day): 9.33 u/L
- PHOSPHORUS (120 h, time 5 day): 12.3 mg/dL
- POTASSIUM (120 h, time 5 day): 6.07 MEQ/L
- SODIUM (120 h, time 5 day): 144.43 MEQ/L
- TOTAL BILIRUBIN (120 h, time 5 day): 0.17 mg/dL
- TOTAL PROTEIN (120 h, time 5 day): 5.9 G/DL
- URIC ACID (120 h, time 5 day): 1.53 mg/dL
